Assays:
recombinant NL4-3 virus = assay: HIV cell culture assay (antiviral activity, luciferase readout in MT-2 cells); assay type: cell-based; settings: Human immunodeficiency virus 1, NL43, MT2
Method: HIV cell culture assay—MT-2 cells, 293T cells and the proviral DNA clone of NL4-3 virus were obtained from the […] AIDS Research and Reference Reagent Program. MT-2 cells were propagated in RPMI 1640 media supplemented with 10% heat inactivated fetal bovine serum (FBS), […] penicillin G and up to 100 units/mL streptomycin. The 293T cells were propagated in DMEM media supplemented with 10% heat inactivated FBS, […] penicillin G and […] streptomycin. A recombinant NL4-3 proviral clone, in which a section of the nef gene was replaced with the Renilla luciferase gene, was used to make the reference virus used in these studies. The recombinant virus was prepared through transfection of the recombinant NL4-3 proviral clone into 293T cells using Transit-293 Transfection Reagent from Mirus Bio LLC (Madison, Wis.). Supernatent was harvested after 2-3 days and the amount of virus present was titered in MT-2 cells using luciferase enzyme activity as a marker by measuring luciferase enzyme activity. Luciferase was quantitated using the EnduRen Live Cell Substrate from Promega (Madison, Wis.). Antiviral activities of compounds toward the recombinant virus were quantified by measuring luciferase activity in MT-2 cells infected for 4-5 days with the recombinant virus in the presence of serial dilutions of the compound.
The 50% effective concentration (EC50) was calculated by using the exponential form of the median effect equation where (Fa)=1/[1+(ED50/drug conc.)m] (Johnson V A, Byington R T. Infectivity Assay. In Techniques in HIV Research. ed. Aldovini A, Walker B D. 71-76. New York: Stockton Press. 1990). The 50% inhibitory concentration (EC50) was calculated by using the exponential form of the median effect equation where percent inhibition=1/[1+(EC50/drug concentration)m], where m is a parameter that reflects the slope of the concentration-response curve.

[1] = Compound cytotoxicity, XTT-based colorimetric assay; assay type: cell-based; settings: human; uninfected MT2 cells, day 4, XTT; read-out: CC50
Method: Compound cytotoxicity and the corresponding CC50 values were determined using the same protocol as described in the antiviral assay except that uninfected cells were used. Cytotoxicity was assessed on day 4 in uninfected MT2 cells by using a XTT (2,3-bis[2-Methoxy-4-nitro-5-sulfophenyl]-2H-tetrazolium-5-carboxyanilide inner salt)-based colorimetric assay (Sigma-Aldrich, St Louis, Mo.).

SMILES	EC50 (recombinant NL4-3 virus) [nM]	CC50 at 4 days [1] [nM]
CCS(=O)(=O)Nc1nn(C)c2c(-n3c([C@H](Cc4cc(F)cc(F)c4)NC(=O)Cn4nc(C(F)F)c5c4C(F)(F)[C@@H]4C[C@H]54)nc4cc(N5CCOCC5)ccc4c3=O)ccc(Cl)c12 (atropisomer, axis not shown; (P)) [Example 65, N—((S)-1-((3P)-3-(4-chloro-3-(ethylsulfonamido)-1-methyl-1H-indazol-7-yl)-7-morpholino-4-oxo-3,4-dihydroquinazolin-2-yl)-2-(3,5-difluorophenyl)ethyl)-2-((3bS,4aR)-3-(difluoromethyl)-5,5-difluoro-3b,4,4a,5-tetrahydro-1H-cyclopropa[3,4]cyclopenta[1,2-c]pyrazol-1-yl)acetamide]	0.051	> 500
Cn1nc(NS(C)(=O)=O)c2c(Cl)ccc(-n3c([C@H](Cc4cc(F)cc(F)c4)NC(=O)Cn4nc(C(F)F)c5c4C(F)(F)[C@@H]4C[C@H]54)nc4cc(N5CCC6(CC5)COC6)ccc4c3=O)c21 (atropisomer, axis not shown; (P)) [Example 25, N—((S)-1-((3P)-3-(4-chloro-1-methyl-3-(methylsulfonamido)-1H-indazol-7-yl)-4-oxo-7-(2-oxa-7-azaspiro[3.5]nonan-7-yl)-3,4-dihydroquinazolin-2-yl)-2-(3,5-difluorophenyl)ethyl)-2-((3bS,4aR)-3-(difluoromethyl)-5,5-difluoro-3b,4,4a,5-tetrahydro-1H-cyclopropa[3,4]cyclopenta[1,2-c]pyrazol-1-yl)acetamide]	0.095	> 500
C[C@@H]1CN(c2ccc3c(=O)n(-c4ccc(Cl)c5c(NS(C)(=O)=O)nn(CC(F)F)c45)c([C@H](Cc4cc(F)cc(F)c4)NC(=O)Cn4nc(C(F)(F)F)c5ccccc54)nc3c2)C[C@H](C)O1 (atropisomer, axis not shown; (P)) [Example 43, N—((S)-1-((3P)-3-(4-chloro-1-(2,2-difluoroethyl)-3-(methylsulfonamido)-1H-indazol-7-yl)-7-((2S,6R)-2,6-dimethylmorpholino)-4-oxo-3,4-dihydroquinazolin-2-yl)-2-(3,5-difluorophenyl)ethyl)-2-(3-(trifluoromethyl)-1H-indazol-1-yl)acetamide]	1.2	> 500
C[C@@H]1CN(c2ccc3c(=O)n(-c4ccc(Cl)c5c(NS(C)(=O)=O)nn(CC(F)F)c45)c([C@H](Cc4cc(F)cc(F)c4)NC(=O)Cn4nc(C(F)(F)F)c5c4C(F)(F)[C@@H]4C[C@H]54)nc3c2)C[C@H](C)O1 (atropisomer, axis not shown; (P)) [Example 45, N—((S)-1-((3P)-3-(4-chloro-1-(2,2-difluoroethyl)-3-(methylsulfonamido)-1H-indazol-7-yl)-7-((2S,6R)-2,6-dimethylmorpholino)-4-oxo-3,4-dihydroquinazolin-2-yl)-2-(3,5-difluorophenyl)ethyl)-2-((3bS,4aR)-5,5-difluoro-3-(trifluoromethyl)-3b,4,4a,5-tetrahydro-1H-cyclopropa[3,4]cyclopenta[1,2-c]pyrazol-1-yl)acetamide]	0.1	> 500
Cn1nc(NS(C)(=O)=O)c2c(Cl)ccc(-n3c([C@H](Cc4cc(F)cc(F)c4)NC(=O)Cn4nc(C(F)F)c5c4C(F)(F)[C@@H]4C[C@H]54)nc4cc(N5CCCOCC5)ccc4c3=O)c21 (atropisomer, axis not shown; (P)) [Example 17, N—((S)-1-((3P)-3-(4-chloro-1-methyl-3-(methylsulfonamido)-1H-indazol-7-yl)-7-(1,4-oxazepan-4-yl)-4-oxo-3,4-dihydroquinazolin-2-yl)-2-(3,5-difluorophenyl)ethyl)-2-((3bS,4aR)-3-(difluoromethyl)-5,5-difluoro-3b,4,4a,5-tetrahydro-1H-cyclopropa[3,4]cyclopenta[1,2-c]pyrazol-1-yl)acetamide]	0.069	> 1000

Reference: patent publication US20210395262A1, “INHIBITORS OF HUMAN IMMUNODEFICIENCY VIRUS REPLICATION” (ViiV HEALTHCARE UK (NO.5) LIMITED, priority 2018, published 2021)
